From ChEMBL document CHEMBL1201862, “PubChem BioAssay data set” (2004)
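Grown in 96-well plates, cells were treated for 48 hours with each compound at five concentrations. Insufficient inhibition: endpoint recorded as highest concentration tested. The concentration for 50% growth inhibition is given as GI50.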 Calls of active or inactive are those of the source. No stated cut-off is given here; in the data, active = GI50 up to about 1.1 µM and inactive = higher.

How the values were obtained:
Test in all cases: NCI-60 cell line screen, 48 h
786-0 = system: 786-0
A498 = system: A498
A549 = system: A549
ACHN = system: ACHN
BT-549 = system: BT-549
CAKI-1 = system: CAKI-1
CCRF-CEM = system: CCRF-CEM
COLO 205 = system: COLO 205
DU-145 = system: DU-145
EKVX = system: EKVX
HCC 2998 = system: HCC 2998
HCT-116 = system: HCT-116
HCT-15 = system: HCT-15
HL-60 = system: HL-60
HOP-62 = system: HOP-62
HOP-92 = system: HOP-92
HT-29 = system: HT-29
Hs-578T = system: Hs-578T
IGROV-1 = system: IGROV-1
K562 = system: K562
KM12 = system: KM12
LOX IMVI = system: LOX IMVI
M14 = system: M14
MCF7 = system: MCF7
MDA-MB-231 = system: MDA-MB-231
MDA-MB-435 = system: MDA-MB-435
MDA-N = system: MDA-N
MOLT-4 = system: MOLT-4
Malme-3M = system: Malme-3M
NCI-H226 = system: NCI-H226
NCI-H23 = system: NCI-H23
NCI-H460 = system: NCI-H460
NCI-H522 = system: NCI-H522
NCI/ADR-RES = system: NCI/ADR-RES
OVCAR-3 = system: OVCAR-3
OVCAR-4 = system: OVCAR-4
OVCAR-5 = system: OVCAR-5
OVCAR-8 = system: OVCAR-8
PC-3 = system: PC-3
RPMI-8226 = system: RPMI-8226
RXF 393 = system: RXF 393
SF-268 = system: SF-268
SF-295 = system: SF-295
SF-539 = system: SF-539
SK-MEL-28 = system: SK-MEL-28
SK-MEL-2 = system: SK-MEL-2
SK-MEL-5 = system: SK-MEL-5
SK-OV-3 = system: SK-OV-3
SN12C = system: SN12C
SNB-19 = system: SNB-19
SNB-75 = system: SNB-75
SW-620 = system: SW-620
T47D = system: T47D
TK-10 = system: TK-10
U-251 = system: U-251
UACC-257 = system: UACC-257
UACC-62 = system: UACC-62
UO-31 = system: UO-31

## CCCC(=O)OCC(COC(=O)CCC)OC(=O)CCC [TRIBUTYRIN]
786-0
  GI50: > 100 µM (inactive)
A498
  GI50: > 100 µM (inactive)
A549
  GI50: 96.6 µM (inactive)
ACHN
  GI50: 96.2 µM (inactive)
BT-549
  GI50: 97.3 µM (inactive)
CAKI-1
  GI50: 49.1 µM (inactive)
CCRF-CEM
  GI50: 46.1 µM (inactive)
COLO 205
  GI50: 55.6 µM (inactive)
DU-145
  GI50: 29.9 µM (inactive)
EKVX
  GI50: > 100 µM (inactive)
HCC 2998
  GI50: > 100 µM (inactive)
HCT-116
  GI50: 48.8 µM (inactive)
HCT-15
  GI50: > 100 µM
HL-60
  GI50: 33.3 µM (inactive)
HOP-62
  GI50: > 100 µM (inactive)
HOP-92
  GI50: > 100 µM (inactive)
HT-29
  GI50: > 100 µM (inactive)
Hs-578T
  GI50: 57.9 µM (inactive)
IGROV-1
  GI50: > 100 µM (inactive)
K562
  GI50: 64.7 µM (inactive)
KM12
  GI50: > 100 µM (inactive)
LOX IMVI
  GI50: 82 µM (inactive)
M14
  GI50: 58.5 µM (inactive)
MCF7
  GI50: > 100 µM (inactive)
MDA-MB-231
  GI50: 45.2 µM (inactive)
MDA-MB-435
  GI50: 85.7 µM (inactive)
MDA-N
  GI50: 65.2 µM (inactive)
MOLT-4
  GI50: 73.5 µM (inactive)
Malme-3M
  GI50: 41.2 µM (inactive)
NCI-H226
  GI50: > 100 µM (inactive)
NCI-H23
  GI50: > 100 µM (inactive)
NCI-H460
  GI50: 99.8 µM (inactive)
NCI-H522
  GI50: 17.9 µM (inactive)
NCI/ADR-RES
  GI50: 20.1 µM (inactive)
OVCAR-3
  GI50: > 100 µM (inactive)
OVCAR-4
  GI50: > 100 µM (inactive)
OVCAR-5
  GI50: 57.3 µM (inactive)
OVCAR-8
  GI50: 62.4 µM (inactive)
PC-3
  GI50: 99.3 µM (inactive)
RPMI-8226
  GI50: 17.1 µM (inactive)
RXF 393
  GI50: > 100 µM (inactive)
SF-268
  GI50: > 100 µM (inactive)
SF-295
  GI50: > 100 µM (inactive)
SF-539
  GI50: 62.8 µM (inactive)
SK-MEL-28
  GI50: 66.1 µM (inactive)
SK-MEL-2
  GI50: 24.2 µM (inactive)
SK-MEL-5
  GI50: 41.8 µM (inactive)
SK-OV-3
  GI50: 61.2 µM (inactive)
SN12C
  GI50: > 100 µM (inactive)
SNB-19
  GI50: > 100 µM (inactive)
SNB-75
  GI50: 36.7 µM (inactive)
SW-620
  GI50: > 100 µM (inactive)
T47D
  GI50: > 100 µM (inactive)
TK-10
  GI50: 27.3 µM (inactive)
U-251
  GI50: 53 µM (inactive)
UACC-257
  GI50: 42.2 µM (inactive)
UACC-62
  GI50: 58.3 µM (inactive)
UO-31
  GI50: 34.4 µM (inactive)

## O=C1CCC(=O)N1CNc1ccc2c(c1)S(=O)(=O)c1ccccc1O2
786-0
  GI50: > 100 µM (inactive)
A498
  GI50: > 100 µM (inactive)
A549
  GI50: > 100 µM (inactive)
ACHN
  GI50: > 100 µM (inactive)
BT-549
  GI50: > 100 µM (inactive)
CAKI-1
  GI50: > 100 µM (inactive)
CCRF-CEM
  GI50: > 100 µM (inactive)
COLO 205
  GI50: > 100 µM (inactive)
DU-145
  GI50: > 100 µM (inactive)
EKVX
  GI50: 46 µM (inactive)
HCT-116
  GI50: > 100 µM (inactive)
HCT-15
  GI50: > 100 µM
HL-60
  GI50: > 100 µM (inactive)
HOP-62
  GI50: > 100 µM (inactive)
HOP-92
  GI50: > 100 µM (inactive)
HT-29
  GI50: > 100 µM (inactive)
Hs-578T
  GI50: > 100 µM (inactive)
IGROV-1
  GI50: > 100 µM (inactive)
K562
  GI50: > 100 µM (inactive)
KM12
  GI50: > 100 µM (inactive)
LOX IMVI
  GI50: > 100 µM (inactive)
M14
  GI50: > 100 µM (inactive)
MCF7
  GI50: > 100 µM (inactive)
MDA-MB-231
  GI50: > 100 µM (inactive)
MDA-MB-435
  GI50: > 100 µM (inactive)
MDA-N
  GI50: > 100 µM (inactive)
MOLT-4
  GI50: > 100 µM (inactive)
Malme-3M
  GI50: > 100 µM (inactive)
NCI-H226
  GI50: > 100 µM (inactive)
NCI-H23
  GI50: > 100 µM (inactive)
NCI-H522
  GI50: > 100 µM (inactive)
NCI/ADR-RES
  GI50: > 100 µM (inactive)
OVCAR-3
  GI50: > 100 µM (inactive)
OVCAR-4
  GI50: > 100 µM (inactive)
OVCAR-5
  GI50: > 100 µM (inactive)
OVCAR-8
  GI50: > 100 µM (inactive)
PC-3
  GI50: > 100 µM (inactive)
RPMI-8226
  GI50: 54.7 µM (inactive)
RXF 393
  GI50: > 100 µM (inactive)
SF-268
  GI50: > 100 µM (inactive)
SF-295
  GI50: > 100 µM (inactive)
SF-539
  GI50: > 100 µM (inactive)
SK-MEL-28
  GI50: > 100 µM (inactive)
SK-MEL-2
  GI50: > 100 µM (inactive)
SK-MEL-5
  GI50: > 100 µM (inactive)
SN12C
  GI50: > 100 µM (inactive)
SNB-19
  GI50: > 100 µM (inactive)
SW-620
  GI50: > 100 µM (inactive)
T47D
  GI50: > 100 µM (inactive)
TK-10
  GI50: > 100 µM (inactive)
U-251
  GI50: > 100 µM (inactive)
UACC-257
  GI50: > 100 µM (inactive)
UACC-62
  GI50: > 100 µM (inactive)
UO-31
  GI50: > 100 µM (inactive)
